Measured values from article PMC7432809, “Antimicrobial Activity of Small Synthetic Peptides Based on the Marine Peptide Turgencin A: Prediction of Antimicrobial Peptide Sequences in a Natural Peptide and Strategy for Optimization of Potency” (International Journal of Molecular Sciences, 2020).
Where a SMILES comes first, the peptide text is derived from it. Bridges are numbered along the chain shown (N, C = ends).

Experiments:
[1] = system: Micrococcus luteus; experiment: microbe, parasite or virus in culture; type: cell-based; details: Micrococcus luteus; MH medium, 24 h at 35 °C, OD 595 nm <10% of growth control; triplicates
Method: (§1) The synthesized peptides were screened for antibacterial activity against five strains of G+ bacteria: B. subtilis (Bs, ATCC 23857), C. glutamicum (Cg, ATCC 13032), S. aureus (Sa, ATCC 9144), Micrococcus luteus (Ml), B. megaterium (Bm) (the last two were obtained from professor Olaf B. Styrvold, UiT The Arctic University of Norway).
(§2) Two strains of G- bacteria, P. aeruginosa (Pa, ATCC 27853) and E. coli (Ec, ATCC 25922), were also used. Cultures stored at -80 °C in glycerol were transferred to Müller–Hinton plates (MH, Difco Laboratories, Detroit, MI, USA) and incubated for 24 h at 35 °C. Colonies of each strain were transferred to 5 mL liquid MH medium and left shaking (600 rpm) at room temperature overnight. An aliquot of actively growing bacteria (20 µL) was inoculated in 5 mL MH medium and left shaking for 2 h at room temperature. In order to have a sensitive bioassay, the bacterial cultures were diluted with medium to only 2.5–3 × 10^4 bacteria/mL and an aliquot of 50 µL was added to each well in 96 microwell plates (Thermo Fisher Scientific, Roskilde, Denmark) preloaded with peptide solution (50 µL). The antibacterial assays were performed as previously described. The microtiter plates were incubated for 24 h at 35 °C with optical density (595 nm) recorded every hour using an Envision 2103 multilabel reader, controlled by a Wallac Envision manager (PerkinElmer, Waltham, MA, USA). The minimum inhibitory concentration (MIC) was defined as the sample concentration showing an optical density less than 10% of the negative (growth) control, consisting of bacteria and MQ-H2O. Oxytetracycline (concentrations ranging from 20–0.02 µg/mL, Sigma-Aldrich) and indolicidin (concentration ranging from 200–0.2 µg/mL, Sigma-Aldrich) served as a positive (inhibition) control. The synthetic peptides were tested for antibacterial activity in concentrations ranging from 250 to 0.5 µg/mL in two-fold dilutions. All tests were performed in triplicates.

[2] = system: Bacillus megaterium; experiment: microbe, parasite or virus in culture; type: cell-based; details: Bacillus megaterium; MH medium, 24 h at 35 °C, OD 595 nm <10% of growth control; triplicates
Method: as §1, §2

[3] = system: Staphylococcus aureus (ATCC 9144); details: turgencin A data ref Hansen et al. [24]; cited from earlier work
Description: Table 3 Antimicrobial activities of turgencin A and the synthesized StAMP-1–11 peptides. | column: Gram-Pos / Sa

[4] = system: Bacillus subtilis (ATCC 23857); details: turgencin A data ref Hansen et al. [24]; cited from earlier work
Description: Table 3 Antimicrobial activities of turgencin A and the synthesized StAMP-1–11 peptides. | column: Gram-Pos / Bs

[5] = system: Escherichia coli (ATCC 25922); details: turgencin A data ref Hansen et al. [24]; cited from earlier work
Description: Table 3 Antimicrobial activities of turgencin A and the synthesized StAMP-1–11 peptides. | column: Gram-Neg / Ec

[6] = system: Pseudomonas aeruginosa (ATCC 27853); details: turgencin A data ref Hansen et al. [24]; cited from earlier work
Description: Table 3 Antimicrobial activities of turgencin A and the synthesized StAMP-1–11 peptides. | column: Gram-Neg / Pa

[7] = system: Corynebacterium glutamicum (ATCC 13032); details: turgencin A data ref Hansen et al. [24]; cited from earlier work
Description: Table 3 Antimicrobial activities of turgencin A and the synthesized StAMP-1–11 peptides. | column: Gram-Pos / Cg

[8] = system: Rhodotorula sp.; experiment: microbe, parasite or virus in culture; type: cell-based; details: potato dextrose broth with 2% glucose, room temperature 48 h, OD 600 nm, >90% inhibition; triplicate
Method: (§3) StAMP-1–11 were screened for antifungal activity against C. albicans (Ca, ATCC 10231), A. pullulans (Ap) and Rhodotorula sp. (Rh) (the last two were obtained from professor Arne Tronsmo, The Norwegian University of Life Sciences, Ås, Norway). The antifungal assay was performed as previously described with a few modifications. Briefly, fungal spores were dissolved in potato dextrose broth (Difco Laboratories) with 2% D(+)-glucose (Merck, Darmstadt, Germany) to a concentration of 4 × 10^5 spores/mL. The spores (50 µL) were inoculated on 96 microwell plates (Thermo Fisher Scientific) containing the synthetic peptides (50 µL) and controls (water or antibiotic). The peptides were diluted in MQ-H2O at final concentrations ranging from 250–3.9 µg/mL in two-fold serial dilutions. Triclosan (Sigma-Aldrich, Steinheim, Germany) was used as a positive (antifungal) control (32–0.25 µg/mL), and MQ-H2O as a negative (growth) control. Cultures were grown in room temperature for 24 h (Ca) and 48 h (Ap and Rh). Growth inhibition was determined by measuring OD values at 600 nm by a microplate reader (Synergy H1 Hybrid Multi-Mode Reader, BioTek, Winooski, VT, USA). […] All experiments were done in triplicate.

[9] = system: Candida albicans (ATCC 10231); experiment: microbe, parasite or virus in culture; type: cell-based; details: potato dextrose broth with 2% glucose, room temperature 24 h, OD 600 nm, >90% inhibition; triplicate
Method: as §3

[10] = system: Aureobasidium pullulans; experiment: microbe, parasite or virus in culture; type: cell-based; details: potato dextrose broth with 2% glucose, room temperature 48 h, OD 600 nm, >90% inhibition; triplicate
Method: as §3

CSCC[C@@H]1NC(=O)[C@H](CCCCN)NC(=O)[C@@H](NC(=O)[C@H](C)NC(=O)[C@H](C)NC(=O)[C@H](CCCCN)NC(=O)[C@@H](NC(=O)[C@H](CCCCN)NC(=O)[C@@H]2CCCN2C(=O)CN)[C@@H](C)O)CSSC[C@@H](C(=O)N[C@@H](CC(=O)O)C(=O)N[C@@H](C)C(=O)N[C@H](C(N)=O)C(C)C)NC(=O)CNC(=O)[C@H](CC(C)C)NC(=O)[C@H](CCC(=O)O)NC(=O)[C@@H]2CSSC[C@H](NC(=O)[C@H](C)NC1=O)C(=O)N[C@@H](CCCCN)C(=O)N[C@@H](CC(C)C)C(=O)N[C@@H](C)C(=O)N[C@@H]([C@@H](C)O)C(=O)N[C@H]1CSSC[C@H](NC(=O)[C@H](CCCCN)NC(=O)[C@H](Cc3c[nH]c4ccccc34)NC(=O)CNC(=O)CNC(=O)[C@@H]3CCCN3C(=O)[C@H](CCCCN)NC(=O)[C@H](CCCCN)NC(=O)CNC1=O)C(=O)N[C@@H](CCCCN)C(=O)N[C@@H](CC(C)C)C(=O)N2 [Turgencin A] (H-GPKTKAACKMACKLATCGKKPGGWKCKLCELGCDAV-NH2; disulfide 8-33, 12-29, 17-26; N-terminus assumed)
Antimicrobial Activity (MIC) Ml [1]: 8.0 µg/mL
Antimicrobial Activity (MIC) Bm [2]: 0.5 µg/mL
Antimicrobial Activity (MIC) Sa [3]: 23.3 µg/mL
Antimicrobial Activity (MIC) Bs [4]: 1.5 µg/mL
Antimicrobial Activity (MIC) Ec [5]: 3.0 µg/mL
Antimicrobial Activity (MIC) Pa [6]: 5.9 µg/mL
Antimicrobial Activity (MIC) Cg [7]: 1.5 µg/mL
Antimicrobial Activity (MIC) Rh [8]: 23.2 µg/mL
Antimicrobial Activity (MIC) Ca [9]: 46.3 µg/mL
Antimicrobial Activity (MIC) Ap [10]: 92.6 µg/mL
